Results reported in patent US5395610A, “Agents for potentiating the effects of antitumor agents and combating multiple drug resistance” (Burroughs-Wellcome Co., priority 1989, dated 1995).
Counter-ions that a name gives are not always drawn.

What was measured:
[1] = in vitro; format: cell-based, Chinese hamster; conditions: hamster, cho auxb1 cells
[2] = tested on: Chinese hamster ovary (CHO) cells, drug resistant C5S32; experiment: In vitro cytotoxicity / potentiation of Actinomycin D in Chinese hamster ovary cells, drug resistant C5S32 (MTT); format: cell-based; conditions: 96 h, fraction of Act D alone (1.00)
[3] = as above; format: cell-based; conditions: hamster, cho c5s32 cells, fraction of untreated cultures (1.00), read-out: Cytotoxicity, normalized absorbance, Drug Resistant C5S32, 0 (no Act D); for viability at 96 h, 1 µM: 1 μM potentiating agent alone; for viability at 96 h, 10 µM: 10 μM potentiating agent alone
[4] = tested on: human KB epidermoid carcinoma cells, wildtype KB 3-1; experiment: In vitro cytotoxicity / potentiation of Actinomycin D in human KB epidermoid carcinoma cells, wildtype KB 3-1 (MTT); format: cell-based; conditions: 96 h, fraction of Act D alone
[5] = as above; format: cell-based; conditions: human, kb 3-1 cells, fraction of untreated cultures, read-out: Cytotoxicity, normalized absorbance, Wildtype KB 3-1, 0 (no Act D); for viability at 96 h, 1 µM: 1 μM potentiating agent alone; for viability at 96 h, 10 µM: 10 μM potentiating agent alone
[6] = In vitro cytotoxicity / potentiation of Actinomycin D in human KB epidermoid carcinoma cells, drug resistant KB V-1 (MTT); format: cell-based; conditions: human, kb v-1 cells, fraction of untreated cultures, read-out: Cytotoxicity, normalized absorbance, Drug Resistant KB V-1, 0 (no Act D); for viability at 96 h, 1 µM: 1 μM potentiating agent alone; for viability at 96 h, 10 µM: 10 μM potentiating agent alone
[7] = tested on: human KB epidermoid carcinoma cells, drug resistant KB V-1; experiment: as above; format: cell-based; conditions: 96 h, fraction of Act D alone
[8] = 1 μM potentiating agent + Act D 0.5 μM
[9] = 10 μM potentiating agent + Act D 0.5 μM
[10] = 1 μM potentiating agent + Act D 0.1 nM
[11] = 10 μM potentiating agent + Act D 0.1 nM
[12] = 1 μM potentiating agent + Act D 20 nM
[13] = 10 μM potentiating agent + Act D 20 nM

| Compound | viability at 96 h, 1 µM [1] | viability at 96 h, 10 µM [1] | Synergism with Actinomycin D, normalized absorbance, Drug Resistant C5S32, +ACT D [2, 8] | Synergism with Actinomycin D, normalized absorbance, Drug Resistant C5S32, +ACT D [2, 9] | viability at 96 h, 1 µM [3] | viability at 96 h, 10 µM [3] | Synergism with Actinomycin D, normalized absorbance, Wildtype KB 3-1, +ACT D [4, 10] | Synergism with Actinomycin D, normalized absorbance, Wildtype KB 3-1, +ACT D [4, 11] | viability at 96 h, 1 µM [5] | viability at 96 h, 10 µM [5] | viability at 96 h, 1 µM [6] | viability at 96 h, 10 µM [6] | Synergism with Actinomycin D, normalized absorbance, Drug Resistant KB V-1, +ACT D [7, 12] | Synergism with Actinomycin D, normalized absorbance, Drug Resistant KB V-1, +ACT D [7, 13] |
| --- | --- | --- | --- | --- | --- | --- | --- | --- | --- | --- | --- | --- | --- | --- |
| CN(C)CC/C=C1/c2ccccc2COc2ccc(Br)cc21.Cl.Cl.Cl [(A), (Z)-3-(2-Bromo-6,11-dihydrodibenz [b,e]oxepin-11-ylidene)-N,N-dimethylpropylamine trihydrochloride] | 100% | 100% | 0.71 | 0.22 | 85% | 42% | 0.88 | 1.00 | 99% | 98% | 100% | 75% | 0.99 | 0.21 |
| CN(C)CC/C=C1\c2ccccc2COc2ccc(Br)cc21 [(B), (E)-3-(2-Bromo-6,11-dihydrodibenz [b,e]oxepin-11-ylidene)-N,N-dimethylpropylamine 3/2 hydrochloride] | 98% | 87% | 0.82 | 0.37 | 83% | 55% | – | 0.91 | 100% | 83% | 100% | 44% | – | 0.01 |
| CN(C)CC/C=C1/c2cc(Br)ccc2COc2ccccc21 [(C), (Z)-3-(9-Bromo-6,11-dihydrodibenz [b,e]oxepin-11-ylidene)-N,N-dimethylpropylamine] | 100% | 92% | 0.90 | 0.54 | 100% | 100% | 0.78 | 0.75 | 100% | 100% | 100% | 34% | 0.97 | 0.36 |
| CN(C)CC/C=C1/c2ccccc2COc2c(Br)cccc21 [(D), (Z)-3-(4-Bromo-6,11-dihydrodibenz [b,e]oxepin-11-ylidene)-N,N-dimethylpropylamine] | 100% | 100% | 0.71 | 0.31 | 89% | 34% | 0.86 | 0.65 | 88% | 51% | 75% | 36% | 0.78 | 0.01 |
| CN(C)CC/C=C1/c2ccccc2COc2cc(Br)ccc21 [(E)] | 100% | 100% | 0.66 | 0.35 | 85% | 48% | 0.85 | 0.77 | 89% | 89% | 88% | 45% | 0.74 | 0.01 |
| Brc1ccc2c(c1)/C(=C\CN1CCCC1)c1ccccc1CO2 [(F), (Z)-1-[2-(2-Bromo-6,11-dihydrodibenz [b,e]-oxepin-11-ylidene)ethyl]pyrrolidine] | 100% | 88% | 0.68 | 0.19 | 82% | 28% | 0.86 | 0.68 | 84% | 78% | 80% | 59% | 0.77 | 0.12 |
